“Also recorded” adds a separate entry of the source.
Columns and labels:
[1] = complexation of erbium on ion-loaded thin layer chromatography plates (1/Rf); format: binding; details: Polygram Ionex 25-SA-Na plates loaded with Er^3+, developed four times in water; FIG. 4
Text: (§1) To evaluate the complexation, ion-loaded thin layer chromatography plates which allow rapid evaluation of the complexation of these ions by the species to be evaluated are used. In the present case, plates of Polygram Ionex 25-SA-Na type (Macherey-Nagel, ref: 80613) loaded with various counterions were used. In each test, the compound to be tested is introduced onto the plate, and if the compound complexes the ions, they will be retained on the plate. The plates are then developed four times in water, because of the small amount of migration of the cyclodextrin derivatives, and then the degree of complexation is determined through the value 1/Rf, where Rf represents the ratio: (distance covered by the cyclodextrin derivative/distance covered by the solvent).
(§2) Measurements of degree of complexation of lead (in the form Pb^2+) and of erbium in the form (Er^3+) were carried out for the following three compounds: • the base cyclodextrin mono-2-O-carboxyméthyle-per-(3,6-anhydro)cyclomaltohexaose (designated (1) in FIG. 4); • a cyclodextrin in accordance with the invention, prepared in the context of Example 1 (denoted (2) in FIG. 4); • a cyclodextrin in accordance with the invention, prepared in the context of Example 2 (denoted (3) in FIG. 4).

[2] = complexation of lead on ion-loaded thin layer chromatography plates (1/Rf); format: binding; details: Polygram Ionex 25-SA-Na plates loaded with Pb^2+, developed four times in water; FIG. 4
Text: as §1, §2

| Substance | erbium-complexation properties (degree of complexation, 1/Rf) [1] | lead-complexation properties (degree of complexation, 1/Rf) [2] |
| --- | --- | --- |
| mono-2-O-carboxymethyl-per-(3,6-anhydro)cyclomaltohexaose [noncoupled per(3,6-anhydro)cyclodextrin, reference compound] | does not complex erbium | – |
| [(mono-2-O-methyl(mono-ε-amidopoly-L-Lysine)]-per-(3,6-anhydro)-α-cyclodextrin [Example 2] | particularly advantageous; also recorded: complex erbium | particularly advantageous |

Reference: patent US20070148090A1, “Per (3,6-anhydro) cyclodextrin derivatives, preparation thereof and use thereof for transporting metal elements to biological targets or for decontaminating biological targets of fluids” (priority 2003, published 2007)
